“Also recorded” adds a separate entry of the source. Read-outs that look alike come from different tables or passages of the source.
Legend:
[1] = test system: parathyroid cell calcium receptor; assay type: cell-based; details: for response of bovine parathyroid cells or Xenopus oocytes expressing calcium receptors to mGluR agonists: bovine parathyroid cells or calcium receptor-expressing Xenopus oocytes; for mobilization of intracellular Ca2+: 500 μM
Method: For example, bovine parathyroid cells loaded with fura-2 are initially suspended in buffer containing 0.5 mM CaCl2. A test substance is added to the cuvette in a small volume (5-15 μl) and changes in the fluorescence signal are measured. Cumulative increases in the concentration of the test substance are made in the cuvette until some predetermined concentration is achieved or no further changes in fluorescence are noted.
This section describes procedures used to obtain and treat parathyroid cells from calves and humans. […] Human parathyroid glands, were obtained from patients undergoing surgical removal of parathyroid tissue for primary or uremic hyperparathyroidism (uremic HPT), and were treated similarly to bovine tissue.
Glands were trimmed of excess fat and connective tissue and then minced with fine scissors into cubes approximately 2-3 mm on a side. Dissociated parathyroid cells were prepared by collagenase digestion and then purified by centrifugation in Percoll buffer. The resultant parathyroid cell preparation was essentially devoid of red blood cells, adipocytes, and capillary tissue as assessed by phase contrast microscopy and Sudan black B staining. Dissociated and purified parathyroid cells were present as small clusters containing 5 to 20 cells.
(§1) The cells were then pelleted, resuspended in the same buffer, but lacking the ester, and incubated a further 15 minutes at 37° C. The cells were subsequently washed twice with PCB containing 0.5 mM CaCl2 and 0.5% BSA and maintained at room temperature (about 20° C.). Immediately before use, the cells were diluted five-fold with prewarmed 0.5 mM CaCl2 -PCB to obtain a final BSA concentration of 0.1%. The concentration of cells in the cuvette used for fluorescence recording was 1-2×10^6 /ml.
(§2) The fluorescence of indicator-loaded cells was measured at 37° C. in a spectrofluorimeter (Biomedical Instrumentation Group, University of Pennsylvania, Philadelphia, Pa.) equipped with a thermostated cuvette holder and magnetic stirrer using excitation and emission wavelengths of 340 and 510 nm, respectively. […] Leakage of dye is dependent on temperature and most occurs within the first 2 minutes after warming the cells in the cuvette. Dye leakage increases only very slowly thereafter. To correct the calibration for dye leakage, cells were placed in the cuvette and stirred at 37° C. for 2-3 minutes. The cell suspension was then removed, the cells pelleted, and the supernatant returned to a clean cuvette. […] This estimate was subtracted from the apparent Fmin.
Dissociated bovine parathyroid cells were purified on gradients of Percoll and cultured overnight in serum-free medium.

net positive charge = assay type: physicochemical
[2] = biological target: T1, bovine parathyroid cell calcium receptor (BoPCaR 1) (Bos taurus, UniProt P35384); assay: Cl- current in Xenopus oocytes expressing BoPCaR 1; assay type: cell-based
T1 construct: Xenopus oocytes were injected with BoPCaR 1, the 5.3 Kb cDNA encoding a bovine parathyroid cell calcium receptor; expressed in transfected cells; host or cells: Xenopus laevis oocytes injected with cRNA/cDNA of BoPCaR 1
T1 sequence (P35384 20-1085): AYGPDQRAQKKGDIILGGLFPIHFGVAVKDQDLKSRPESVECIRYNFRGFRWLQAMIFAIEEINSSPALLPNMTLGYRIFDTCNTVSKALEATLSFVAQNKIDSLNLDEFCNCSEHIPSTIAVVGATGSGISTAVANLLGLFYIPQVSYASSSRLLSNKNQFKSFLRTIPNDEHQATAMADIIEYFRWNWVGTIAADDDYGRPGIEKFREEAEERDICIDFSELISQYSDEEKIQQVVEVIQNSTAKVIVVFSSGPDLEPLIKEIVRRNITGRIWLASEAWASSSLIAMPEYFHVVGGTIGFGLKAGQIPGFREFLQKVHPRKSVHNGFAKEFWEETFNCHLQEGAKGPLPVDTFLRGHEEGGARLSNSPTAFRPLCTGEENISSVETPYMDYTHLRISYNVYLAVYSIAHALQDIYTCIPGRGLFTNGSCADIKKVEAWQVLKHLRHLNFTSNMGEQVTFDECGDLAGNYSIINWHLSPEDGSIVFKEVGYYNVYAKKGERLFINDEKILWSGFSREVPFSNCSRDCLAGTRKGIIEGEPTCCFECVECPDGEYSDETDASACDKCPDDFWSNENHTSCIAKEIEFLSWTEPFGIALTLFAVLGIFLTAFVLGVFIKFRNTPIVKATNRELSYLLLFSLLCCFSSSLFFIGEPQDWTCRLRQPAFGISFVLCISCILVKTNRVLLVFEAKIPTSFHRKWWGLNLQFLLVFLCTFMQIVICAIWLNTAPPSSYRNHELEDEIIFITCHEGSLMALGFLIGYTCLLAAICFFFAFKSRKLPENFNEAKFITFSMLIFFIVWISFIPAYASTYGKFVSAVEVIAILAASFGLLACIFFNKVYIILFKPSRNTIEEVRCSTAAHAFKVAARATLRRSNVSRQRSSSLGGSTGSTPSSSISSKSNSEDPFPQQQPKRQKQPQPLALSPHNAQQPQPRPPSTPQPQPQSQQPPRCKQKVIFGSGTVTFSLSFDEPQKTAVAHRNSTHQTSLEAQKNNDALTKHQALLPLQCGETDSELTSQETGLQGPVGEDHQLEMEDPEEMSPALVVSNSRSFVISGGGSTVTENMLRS
Method: Following incubation, an oocyte was placed into a 100-μl plastic chamber and superfused with MBS at a flow rate of 0.5 ml/min using a peristaltic pump. Test molecules or inorganic polycations were added by rapidly moving the tubing into different buffers. Recording and current-passing electrodes were constructed from thin-wall capillary tubing pulled to a resistance of 1-3 Mohms and filled with 3M KCl. […] Currents were recorded directly onto a strip chart recorder.
The techniques used to clone the parathyroid calcium receptor are briefly described in this example; a more complete description of the techniques is provided in preceding sections, which describe techniques which may be used to clone additional forms of the Ca^2+ -receptor from other cell types. Poly(A^+)-enriched mRNA was initially prepared from bovine parathyroid glands by extracting with guanidinium thiocyanate, centrifugation through CsCl and oligo(dT) cellulose chromatography. […] No such currents were elicited in control eggs injected with water.
These responses are mediated by the following series of biochemical events:
Xenopus oocytes were injected with BoPCaR 1, the 5.3 Kb cDNA encoding a bovine parathyroid cell calcium receptor as described in Example 25. After two to three days, Cl^- currents were examined in the oocytes using a two-electrode voltage clamp.
Xenopus oocytes were injected with BoPCaR 1 as described in Example 25. After two to three days, Cl^- currents were examined in the oocytes using two electrode voltage clamp.

[3] = test system: increases in [Ca2+]i elicited by extracellular Ca2+ in bovine parathyroid cells; assay: block of extracellular Ca2+-induced [Ca2+]i increase / Ca2+ influx in bovine parathyroid cells; assay type: cell-based
Method: as §1, §2

For `N[C@@]1(C(=O)O)CC[C@@H](C(=O)O)C1` (relative stereo) [trans-ACPD], the “response of bovine parathyroid cells or Xenopus oocytes expressing calcium receptors to mGluR agonists” value [1] was “did not respond”.

For `NCCCN(CCCN)CCCN(CCCN)CCCCN(CCCN)CCCN(CCCN)CCCN` [NPS 381, N^1,N^1,N^5, N^10,N^14, N^14-hexakis-(3-aminopropyl) spermine], the “Net (+) Charge (Table 1)” value (net positive charge) was “+10”.

In the case of `NCCNCCNCCNCCN` [Tetraethylenepentamine (TEPA), Tetraethylenepentamine], the “Net (+) Charge (Table 1)” value (net positive charge) is reported as “+5”.

With `COC(=O)C1=C(C)NC(C)=C([N+](=O)[O-])C1c1ccccc1C(F)(F)F` (stereo not drawn) [BAY K 8644] the “effect on basal [Ca2+]i or increases evoked by extracellular Ca2+” value ([1]; 1 μM) was “None”.

With `NCCCN1CCCN(CCCN)CCN(CCCN)CCCN(CCCN)CC1` [NPS 383] the “Net (+) Charge (Table 1)” value (net positive charge) was “+8”.

With `COC(=O)C1=C(C)NC(C)=C(C(=O)OC)C1c1ccccc1[N+](=O)[O-]` [nifedipine] the “effect on basal [Ca2+]i or increases evoked by extracellular Ca2+” value [1] was “None”.

With Gentamicin the “Net (+) Charge (Table 1)” value (net positive charge) was “+5” and the net positive charge (net positive charge; pH 7.3) was “+5”.

For `N[C@@H](CCC(=O)O)C(=O)O` [glutamate], the “response of bovine parathyroid cells or Xenopus oocytes expressing calcium receptors to mGluR agonists” value [1] was “did not respond”.

For `COc1cccc([C@H](C)NCCCc2ccccc2Cl)c1` [NPS S-568], the concentration eliciting responses ([2]; BoPCaR 1-injected oocytes) was 100 µM.

For `COc1ccc(CCN(C)CCCC(C#N)(c2cc(OC)c(OC)c(OC)c2)C(C)C)cc1OC` [D-600], the “potentiation of mobilization of intracellular Ca2+ elicited by extracellular divalent cations” value ([1]; 100 μM) was “potentiated the mobilization of intracellular”, the “change in [Ca2+]i” value ([1]; 100 μM, 0.5 mM extracellular Ca2+) was “evoked no change” and the “increase in [Ca2+]i at intermediate extracellular Ca2+” value ([1]; 100 μM, 1-[…] extracellular Ca2+) was “small, but robust increase”. For the same compound, the “block of influx of extracellular Ca2+” value ([3]; 100 μM) was “blocked the influx of extracellular”.

With `N[C@@H](Cn1oc(=O)[nH]c1=O)C(=O)O` [quisqualate] the “response of bovine parathyroid cells or Xenopus oocytes expressing calcium receptors to mGluR agonists” value [1] was “did not respond”.

In the case of `CCCC(=O)N[C@@H](Cc1ccc(O)cc1)C(=O)NCCCCNCCCNCCCN` [Philanthotoxin-433], the “mobilization of intracellular Ca2+” value [1] is reported as “without effect” and the “net positive charge” value (net positive charge) is reported as “+3”.

For `COc1cccc(C(C)NCCC(c2ccccc2)c2ccccc2)c1` (stereo not drawn) [meta-Methoxyfendiline], the “relative potency” value ([1]; vs NPS 467) was “as potent as NPS 467”.

In the case of `COc1ccc([C@@H]2Sc3ccccc3N(CCN(C)C)C(=O)[C@@H]2OC(C)=O)cc1` [diltiazem], the “effective concentration, like verapamil and D-600” value [1] is reported as 100 µM.

For `O=C(O)c1c2ccccc2cc2ccccc12` [9AC], the “effect on activated chloride currents” value [2] was “blocks the currents”.

In the case of `NCCCCN` [Putrescine], the “net positive charge” value (net positive charge) is reported as “+2”.

In the case of `N=C(N)NCCC[C@H](N)C(=O)NCCCNCCCNCCCCCNC(=O)[C@H](CC(N)=O)NC(=O)Cc1c[nH]c2cccc(O)c12` [Argiotoxin-659], the “concentrations evoking transient increases in [Ca2+]i” value ([1]; bovine parathyroid cells) is reported as 100 to 300 µM, the EC50 ([1]; read-out: EC50 (Table 1), parathyroid cells, screened as in Example 1) is reported as 300 µM and the EC50 ([1]; read-out: EC50 for mobilization of intracellular Ca2+, bovine parathyroid cells) is reported as 300 µM. For the same compound, the “Net (+) Charge (Table 1)” value (net positive charge) was “+4” and the “net positive charge” value (net positive charge) was “+4”.

In the case of `O=C(O)CN(CCOCCOCCN(CC(=O)O)CC(=O)O)CC(=O)O` [EGTA], the “effect on inward currents to Gd3+” value ([2]; EGTA 100 μM, Gd3+ 600 μM) is reported as “prevents oocytes expressing the calcium receptor from responding”.

With `CNc1ccc2oc(C[C@H]3O[C@@]4(CC[C@H]3C)O[C@H]([C@H](C)C(=O)c3ccc[nH]3)[C@H](C)C[C@H]4C)nc2c1C(=O)O` [A23187] the “effect on activated chloride currents” value [2] was “activated”.

For `CC1=C(C(=O)OC(C)C)C(c2cccc3nonc23)C([N+](=O)[O-])=C(C)N1` (single isomer, unassigned; (-)) [(-) 202-791], the “effect on basal [Ca2+]i or increases evoked by extracellular Ca2+” value ([1]; 1 μM) was “None”.

With `NCCCN(CCCN)CCCNCCCCNCCCN(CCCN)CCCN` [NPS 382, N^1,N^1,N^5,N^14, N^14-tetrakis-(3-aminopropyl)spermine] the “Net (+) Charge (Table 1)” value (net positive charge) was “+8”.

In the case of `NC[C@H]1O[C@H](O[C@H]2[C@H](O)[C@@H](O[C@H]3O[C@H](CO)[C@@H](O)[C@H](N)[C@H]3O)[C@H](N)C[C@@H]2N)[C@H](N)[C@@H](O)[C@@H]1O` [Bekanamycin], the EC50 ([1]; read-out: EC50 for mobilization of intracellular Ca2+ (Table 4), screened as in Example 1) is reported as 200 µM, the “Net (+) Charge (Table 1)” value (net positive charge) is reported as “+5” and the net positive charge (net positive charge; pH 7.3) is reported as “+5”.

In the case of `CCOC(=O)C1=C(C)NC(C)=C(C(=O)OC)C1c1cccc([N+](=O)[O-])c1` (stereo not drawn) [nitrendipine], the “effect on basal [Ca2+]i or increases evoked by extracellular Ca2+” value ([1]; 1 μM) is reported as “None”.

For `CC(NCCCc1ccccc1)c1ccccc1` (stereo not drawn) [compound 1D], the “relative potency” value ([1]; vs R-fendiline) was “nearly as potent as the parent molecule”.

With `C[C@@H](NCCC(c1ccccc1)c1ccccc1)c1ccccc1` [R-Fendiline] the EC50 ([1]; bovine parathyroid cells, fura-2, read-out: EC50 PARATHYROID (Table 6)) was 9 µM.

For `CCC[C@@H]1C[C@@H](C(=O)N[C@@H]([C@H]2O[C@H](SC)[C@H](O)[C@@H](O)[C@H]2O)[C@@H](C)O)N(C)C1` [Lincomycin], the “mobilization of intracellular Ca2+” value [1] was “without effect” and the net positive charge (net positive charge; pH 7.3) was “+1”.

With `NCCNCCNCCN` [Triethylenetramine (TETA), triethylenetetramine] the EC50 ([1]; read-out: EC50 (Table 3)) was […] and the “Net (+) Charge (Table 1)” value (net positive charge) was “+4”.

For `COc1ccc(CC(=O)NCCCCCCCCCCCCN)cc1OC` [NPS 384], the “increase in [Ca2+]i (words)” value ([1]; 300 μM) was “did not evoke an increase”, the “block of influx of extracellular Ca2+” value ([3]; 300 μM) was “blocked influx of extracellular” and the “effect of pretreatment on increases in [Ca2+]i elicited by extracellular Ca2+” value ([3]; 100 to 1000 μM) was “depresses steady-state, but not transient increases”. For the same compound, the “fall in [Ca2+]i” value ([3]; 100 to 1000 μM, buffer containing 2 mM CaCl2) was “prompt fall”.

With `NCCCCCCCCCCCCNC(=O)Cc1ccc(O)cc1O` [NPS 021] the “change in [Ca2+]i by compound alone” value ([1]; 0.5 mM Ca2+) was “caused no change; also recorded: does not by itself cause any change”, the “effect on increase in [Ca2+]i elicited by extracellular Ca2+” value ([3]; 200 μM, [Ca2+] 0.5 to 2 mM) was “inhibited the increase” and the IC50 ([3]; Bos taurus, fura-2 loaded bovine parathyroid cells, read-out: IC50 for blocking increase in [Ca2+]i elicited by extracellular Ca2+) was about 200 µM. For the same compound, the “increase in [Ca2+]i evoked by extracellular Ca2+” value ([3]; around 500 μM) was “abolished”.

For `NCCCCCN` [Cadaverine, cadaverine], the “net positive charge” value (net positive charge) was “+2”.

In the case of `COc1ccc(CCN(C)CCCC(C#N)(c2ccc(OC)c(OC)c2)C(C)C)cc1OC` (stereo not drawn) [verapamil], the “block of influx of extracellular Ca2+” value ([3]; 100 μM) is reported as “blocked the influx of extracellular”.

For `N=C(N)NCCC[C@H](N)C(=O)NCCCNCCCNCCCCCNC(=O)[C@H](CC(N)=O)NC(=O)Cc1ccc(O)cc1O` [Argiotoxin-636], the “increase in [Ca2+]i (words)” value ([1]; 400 μM) was “did not elicit increases”, the “potentiation of cytosolic Ca2+ response to extracellular Ca2+” value ([1]; 400 μM) was “did potentiate cytosolic” and the “increase in [Ca2+]i (words)” value ([1]; tested at concentrations similar to 100 to 300 μM) was “had no effect”. The “net positive charge” value (net positive charge) was “+4”.

In the case of `CC1=C(C(=O)OC(C)C)C(c2cccc3nonc23)C([N+](=O)[O-])=C(C)N1` (single isomer, unassigned; (+)) [(+) 202-791], the “effect on basal [Ca2+]i or increases evoked by extracellular Ca2+” value ([1]; 1 μM) is reported as “None”.

With `NC[C@H]1O[C@H](O[C@H]2[C@H](O)[C@@H](O[C@H]3O[C@H](CO)[C@@H](O)[C@H](N)[C@H]3O)[C@H](N)C[C@@H]2N)[C@H](O)[C@@H](O)[C@@H]1O` [Kanamycin] the “mobilization of intracellular Ca2+” value [1] was “without effect” and the net positive charge (net positive charge; pH 7.3) was “~+4.5”.

For `[H]/N=C(/N)N[C@H]1[C@H](O)[C@@H](O)[C@H](O[C@@H]2O[C@@H](C)[C@](O)(C=O)[C@H]2O[C@@H]2O[C@@H](CO)[C@H](O)[C@@H](O)[C@@H]2NC)[C@@H](N/C(N)=N\[H])[C@@H]1O` [Streptomycin], the EC50 ([1]; parathyroid cells, screened as in Example 1, read-out: EC50 (Table 1)) was 600 µM, the “Net (+) Charge (Table 1)” value (net positive charge) was “+3” and the net positive charge (net positive charge; pH 7.3) was “+3”.
